Measured values: ChEMBL document CHEMBL1240494, “Radiosynthesis and in vivo evaluation of [(11)C]MC80 for P-glycoprotein imaging” (Bioorg Med Chem, 2010)

Tests used:
[1] = system: Blood; experiment: Biodistribution in FVB mouse blood at 4.5 MBq, iv after 1 min postinjection; format: ADME, organism-based; details: in vivo
[2] = Ratio of drug uptake in brain to blood in FVB mouse at 18.5 MBq, iv after 30 mins postinjection pretreated with cyclosporin A; format: ADME, organism-based; details: 0.5 h
[3] = Biodistribution in FVB mouse small intestine at 4.5 MBq, iv after 1 min postinjection; format: ADME, organism-based; details: in vivo
[4] = Biodistribution in FVB mouse testes at 4.5 MBq, iv after 60 mins postinjection pretreated with cyclosporin A; format: ADME, organism-based, Testis; details: in vivo, 1 h
[5] = system: Brain; experiment: Biodistribution in FVB mouse brain at 4.5 MBq, iv after 90 mins postinjection; format: ADME, organism-based; details: in vivo, 1.5 h
[6] = Ratio of drug uptake in brain to blood in FVB mouse at 18.5 MBq, iv after 90 mins postinjection; format: ADME, organism-based; details: 1.5 h
[7] = Biodistribution in FVB mouse small intestine at 4.5 MBq, iv after 90 mins postinjection; format: ADME, organism-based; details: in vivo, 1.5 h
[8] = system: Liver; experiment: Biodistribution in mdr1a deficient mouse liver at 4.5 MBq, iv after 60 mins postinjection; format: ADME, organism-based; details: in vivo, 1 h
[9] = system: Spleen; experiment: Biodistribution in FVB mouse spleen at 4.5 MBq, iv after 60 mins postinjection pretreated with cyclosporin A; format: ADME, organism-based; details: in vivo, 1 h
[10] = system: Kidney; experiment: Biodistribution in mdr1a deficient mouse kidney at 4.5 MBq, iv after 60 mins postinjection; format: ADME, organism-based; details: in vivo, 1 h
[11] = Partition coefficient, log D of the compound; format: physicochemical; details: octanol/water
[12] = system: Pancreas; experiment: Biodistribution in FVB mouse pancreas at 4.5 MBq, iv after 60 mins postinjection pretreated with cyclosporin A; format: ADME, organism-based; details: in vivo, 1 h
[13] = system: Heart; experiment: Biodistribution in mdr1a deficient mouse heart at 4.5 MBq, iv after 60 mins postinjection; format: ADME, organism-based; details: in vivo, 1 h
[14] = Biodistribution in FVB mouse large intestine at 4.5 MBq, iv after 1 min postinjection; format: ADME, organism-based; details: in vivo
[15] = system: Liver; experiment: Biodistribution in FVB mouse liver at 4.5 MBq, iv after 60 mins postinjection pretreated with cyclosporin A; format: ADME, organism-based; details: in vivo, 1 h
[16] = system: Lung; experiment: Biodistribution in FVB mouse lung at 4.5 MBq, iv after 1 min postinjection; format: ADME, organism-based; details: in vivo
[17] = system: Kidney; experiment: Biodistribution in FVB mouse kidney at 4.5 MBq, iv after 60 mins postinjection pretreated with cyclosporin A; format: ADME, organism-based; details: in vivo, 1 h
[18] = system: Liver; experiment: Biodistribution in FVB mouse liver at 4.5 MBq, iv; format: ADME, organism-based; details: in vivo
[19] = system: Lung; experiment: Biodistribution in mdr1a deficient mouse lung at 4.5 MBq, iv after 1 min postinjection; format: ADME, organism-based; details: in vivo
[20] = system: Brain; experiment: Biodistribution in FVB mouse brain at 4.5 MBq, iv after 1 min postinjection; format: ADME, organism-based; details: in vivo
[21] = system: Brain; experiment: Biodistribution in mdr1a deficient mouse brain at 4.5 MBq, iv after 60 mins postinjection; format: ADME, organism-based; details: in vivo, 1 h
[22] = Ratio of drug uptake in brain to blood in FVB mouse at 18.5 MBq, iv after 30 mins postinjection; format: ADME, organism-based; details: 0.5 h
[23] = Ratio of drug uptake in brain to blood in FVB mouse at 18.5 MBq, iv after 1 min postinjection pretreated with cyclosporin A; format: ADME, organism-based
[24] = system: Heart; experiment: Biodistribution in FVB mouse heart at 4.5 MBq, iv after 1 min postinjection; format: ADME, organism-based; details: in vivo
[25] = Biodistribution in FVB mouse large intestine at 4.5 MBq, iv after 90 mins postinjection; format: ADME, organism-based; details: in vivo, 1.5 h
[26] = Ratio of drug uptake in testes to blood in FVB mouse at 18.5 MBq, iv after 30 mins postinjection; format: ADME, organism-based; details: in vivo, 0.5 h

Compound: COc1cc2c(cc1OC)CN(Cc1ccc3cc(O[11CH3])ccc3c1)CC2
- Drug uptake [1]: 2.56 % ID/g
- Ratio [2]: 1.5
- Drug uptake [3]: 3.89 % ID/g
- Drug uptake [4]: 2.56 % ID/g
- Drug uptake [5]: 0.9 % ID/g
- Ratio [6]: 1.05
- Drug uptake [7]: 11.78 % ID/g
- Drug uptake [8]: 4.86 % ID/g
- Drug uptake [9]: 1.52 % ID/g
- Drug uptake [10]: 2.46 % ID/g
- logD [11]: 1.96
- Drug uptake [12]: 6.85 % ID/g
- Drug uptake [13]: 10.69 % ID/g
- Drug uptake [14]: 1.83 % ID/g
- Drug uptake [15]: 4.86 % ID/g
- Drug uptake [16]: 31.35 % ID/g
- Drug uptake [17]: 2.46 % ID/g
- Drug uptake [18]: 8.71 % ID/g
- Drug uptake [19]: 31.35 % ID/g
- Drug uptake [20]: 7.66 % ID/g
- Drug uptake [21]: 1.09 % ID/g
- Ratio [22]: 2.17
- Ratio [23]: 2.91
- Drug uptake [24]: 10.69 % ID/g
- Drug uptake [25]: 2.18 % ID/g
- Ratio [26]: 3.04
